According to US11434255B2, “Nucleoside and nucleotide analogues bearing a quaternary all-carbon stereogenic center at the 2′ position and methods of use as a cardioprotective agent” (LCB PHARMA INC., priority 2016, dated 2022):
pEC50, pIC50: −log10 of the molar value. Read-outs that look alike come from different tables or passages of the source.

Legend:
[1] = tested on: wild type mice, DOX-induced toxicity; experiment: In vivo echocardiography in DOX-treated mice
Protocol: (§1) Mice were handled in accordance with institutional guidelines for animal care. Experiments were approved by the institutional Animal Care Committees and the investigation conforms with the Guide for the Care and Use of Laboratory Animals published by the US National Institutes of Health (NIH Publication N. 85-23, revised 1985). Doxorubicin treatment was a single ip injection of 5 or 15 mg/kg as previously described by Aries et al.^6 ALZET micro-osmotic pumps (Model 1002, 0.25 μl/hr, 14 days) were filled with DMSO, Ang II (0.5 μgKg/day) LCB2122 (2.0 or 2.8 μg/Kg/day) diluted in normal saline and inserted subcutaneously in mice for two weeks. M-mode echocardiography was performed using Visual-Sonics VEVO 2100 system and 30-MHz linear array transducer, on lightly anesthetized mice using […], 80 ml/min of 100% oxygen, as described by Aries et al. and echocardiographic indices were calculated as described by Yang et al.^17 Heart failure was defined as EF<45%.

primary cardiomyocytes [2] = experiment: TUNEL assay, DOX-induced apoptosis in primary cardiomyocyte monolayers; type: cell-based
Protocol: (§2) Primary cardiomyocyte monologues covered by serum free media (SF) were treated with DMSO (vehicle), Doxorubicin (DOX) (300 nM), Imatinib (Imat) (5 μM), and/or LCB2122 at varying concentrations (0.1, 0.5, 1.5 at 10 μM) diluted in SF for 3, 6, 18 or 24 hours. The TUNEL assay (Terminal Deoxynucleotidyltransferase mediated dUTP End Labeling) was utilized to detect apoptotic nuclei using an Apop Tag Red in Situ Apoptosis Detection Kit (Millipore, Temecula, Calif.). A Zeis fluorescent microscope was used for image acquisition. Cell counting was done using the Imager® Software.

primary cardiomyocytes [3] = experiment: TUNEL assay, primary cardiomyocytes treated with 3 μM Doxorubicin for 6 hours (Table 1); type: cell-based; details: Cardiomyocyte
Protocol: as §2
The cardioprotective profile of LCB2122, LC2165, LCB2191 and LCB2177 were also investigated. As above, primary cardiomyocytes were treated with 3 μM of Doxorubicin for 6 hours alone or with the above compounds of the invention. The TUNEL assay was utilized to detect apoptotic nuclei. […] LCB2165, LCB2191 and LCB2177 were also active with IC50's of 5 μM.

[4] = tested on: atrial natriuretic factor (ANF); experiment: ANF ELISA on blood plasma of WT and AT1R mice; type: in vivo; details: 2.0 μg/Kg/day, 4 weeks, FIG. 13b
Protocol: FIG. 13b) quantification of an ANF ELISA assay done on blood plasma samples from vehicle and LCB2122 (2.0 μg/Kg/day, 4 weeks) treated WT and AT1R mice ventricles. Once again, the increase in ANF plasma levels was attenuated in the LCB2122 treated AT1R mice.

[5] = tested on: HepG2 human cancer cell line; experiment: Cell Titer Glo growth inhibition, DOX +/- LCB2122; type: cell-based
Description: Indeed, the IC50 of DOX in HepG2 human cancer cell line was identical in the absence or presence of LCB2122. FIG. 8 is a plot representing the percent growth inhibition as measured by Cell Titer Glo assays done on HepG2 cells treated with varying concentrations of DOX+/−LCB-2122 ([…]).

cardiomyocytes = experiment: Sarcomeric alpha-actinin immunofluorescence on cardiomyocytes; type: cell-based; details: 5 uM, six hours, FIG. 7
Protocol: Immunofluorescence were performed on cardiomyocytes as previously described,^16 using a sarcomeric alpha-Actinin antibody (1/500).
FIG. 7 is a micrograph showing α-actinin immunostaining (straight lines) of 2% PFA-fixed cardiomyocytes treated with a) vehicle (DMSO) or b) LCB2122 (5 uM) for six hours. […] White spots mark the nuclei.

heart cardiomyocytes = experiment: TUNEL assay on heart sections of DOX-treated mice; type: in vivo; details: after 2 weeks, FIG. 11
Protocol: as §1
After these 2 weeks, heart cardiomyocytes were also tested by TUNEL assay (on heart sections).

AT1R mice = experiment: Echocardiography in AT1R transgenic (heart failure model) and wild-type mice; type: in vivo
Protocol: as §1
Transgenic mice overexpressing the human angiotensin II type 1 receptor^7 (AT1R) under the control of the mouse α-myosin heavy chain were generated. These mice are a model of human HF. Cardiomyocyte specific overexpression induced in basal conditions overtime, morphologic changes that mimic those observed during the development of cardiac hypertrophy in humans. In order words, these mice develop age-dependent HF.
All AT1R mice had EF % less than 40%, similar to HF patients in human. […] LCB2122 treated AT1R mice (2.0 μg/kg/day for 4 weeks) had their cardiac functions improved as opposed to untreated mice. […] The data shown are the individual values of each mouse at weeks 0 and 4. All WT mice had normal EF % independent of LCB2122 treatment throughout the study. All AT1R mice were in HF prior to any treatment.

primary cardiomyocytes [6] = experiment: TUNEL assay, Imatinib-induced apoptosis in primary cardiomyocytes; type: cell-based; details: Cardiomyocyte, 6 hours, FIG. 6, read-out: EC50, prevention of apoptosis induced by Imatinib
Protocol: as §2

[7] = tested on: atrial natriuretic factor (ANF); experiment: ANF transcript QPCR on ventricles of WT and AT1R mice; type: in vivo; details: 2.0 μg/Kg/day, 4 weeks, FIG. 13a
Description: The massive ANF upregulation seen in AT1R mice usually indicative of cardiac stress is attenuated in LCB2122 treated AT1R mice.

In the case of `COc1cccc2c1C(=O)c1c(O)c3c(c(O)c1C2=O)C[C@@](O)(C(=O)CO)C[C@@H]3O[C@H]1C[C@H](N)[C@H](O)[C@H](C)O1` [DOX, Doxorubicin, reference compound], the “ejection fraction (EF, %) after DOX alone” value ([1]; mice, two weeks after DOX ip injection, FIG. 9) was “decreased significantly” and the “ventricular wall thickness after DOX alone” value ([1]; wild type mice, DOX (5 μg/kg) as printed) was “induced also a loss of ventricular wall thickness”.
With `CCOP(=O)(OCC)OC[C@H]1O[C@@H](n2cnc3c(N)nc(Cl)nc32)[C@](C)(CO)[C@@H]1O` [LCB2122, ((2R,3S,4R,5R)-5-(6-amino-2-chloro-9H-purin-9-yl)-3-hydroxy-4-(hydroxymethyl)-4-methyltetrahydrofuran-2-yl)methyl diethyl phosphate] the pEC50 (primary cardiomyocytes [2]; Cardiomyocyte, DOX 300 nM, TUNEL, FIG. 4, read-out: EC50, prevention of DOX-induced apoptotic cell death) was 6.30, the “prevention of DOX-induced apoptotic cell death” value (primary cardiomyocytes [2]; DOX 300 nM, 6 hours, FIGS. 3 and 4) was “completely prevented DOX-induced apoptotic cell death” and the “DOX-induced apoptosis over time” value (primary cardiomyocytes [2]; DOX 300 nM, at 3, 6 or 24 hours) was “blocked”. For the same compound, the “induction of apoptosis by the compound alone” value (primary cardiomyocytes [2]; time course, any time points, FIG. 5) was “did not induce apoptosis”, the pIC50 (primary cardiomyocytes [3]; 6 h) was 6.00 and the “increase in ANF plasma levels” value [4] was “attenuated”. The “effect on antiproliferative effect of DOX” value ([5]; HepG2, DOX +/- LCB2122, FIG. 8) was “did not affect the antiproliferative effect of DOX”, the “effect on HepG2 sensitivity to DOX” value ([5]; up to 4 μM LCB2122) was “no effect on HepG2 sensitivity to DOX” and the “cytoskeletal organization and cell size (α-actinin immunostaining)” value (cardiomyocytes) was “does not alter cytoskeletal organization or cell size”. For the same compound, the “apoptotic cardiomyocytes (TUNEL, heart sections)” value (heart cardiomyocytes) was “significant decrease of apoptotic cardiomyocytes”, the “cardiac function (ejection fraction) in AT1R mice” value (AT1R mice; 2.0 μg/kg per day for 4 weeks, FIG. 12) was “significant improvement of the cardiac function” and the “cardiac function of normal (WT) mice” value (AT1R mice; 2.0 μg/kg/day for 4 weeks) was “did not alter cardiac function of normal mice”. The “share of treated AT1R mice with EF % equal and above 40%” value (AT1R mice; after four weeks of LCB2122) was 55%, the pEC50 (primary cardiomyocytes [6]) was 5.30 and the “ANF transcript upregulation in ventricles” value [7] was “attenuated”. For the same compound, the “ejection fraction (EF, %) after DOX” value ([1]; DOX ip, LCB2122 micropump for two weeks, FIG. 9) was “protected against DOX-induced toxicity” and the “left ventricle wall thickness after DOX” value ([1]; wild type mice, DOX, FIG. 10) was “protected against this DOX-induced wall thickness”.
`CCOP(=O)(OCC)OC[C@H]1O[C@@H](n2cnc3c(N)nc(Cl)nc32)[C@](C)(COCc2ccccc2)[C@@H]1O` [LCB2165, ((2R,3S,4R,5R)-5-(6-amino-2-chloro-9H-purin-9-yl)-4-((benzyloxy)methyl)-3-hydroxy-4-methyltetrahydrofuran-2-yl)methyl diethyl phosphate] was tested, and the pIC50 (primary cardiomyocytes [3]; 6 h) was 5.30.
Work on `CC(C)OP(=O)(OC[C@H]1O[C@@H](n2cnc3c(N)nc(Cl)nc32)[C@](C)(CO)[C@@H]1O)OC(C)C` [LCB2177, ((2R,3S,4R,5R)-5-(6-amino-2-chloro-9H-purin-9-yl)-3-hydroxy-4-(hydroxymethyl)-4-methyltetrahydrofuran-2-yl)methyl diisopropyl phosphate] yielded a pIC50 (primary cardiomyocytes [3]; 3 μM Doxorubicin, 6 hours, TUNEL apoptotic nuclei, read-out: IC50) of 5.30.
Work on `C#CCOc1ccc(C(=O)c2ccc(C(=O)OC[C@]3(C)[C@H](O)[C@@H](COP(=O)(OCC)OCC)O[C@H]3n3cnc4c(N)nc(Cl)nc43)cc2)cc1` [LCB2191, ((2R,3R,4S,5R)-2-(6-amino-2-chloro-9H-purin-9-yl)-5-(((diethoxyphosphoryl)oxy)methyl)-4-hydroxy-3-methyltetrahydrofuran-3-yl)methyl 4-(4-(prop-2-yn-1-yloxy)benzoyl)benzoate] yielded a pIC50 (primary cardiomyocytes [3]; 6 h) of 5.30.
